Measured values published in US10478501B2, “Method of treating disorders using a pharmaceutical composition of oligopeptides” (Merck Patent GmbH, priority 2011, dated 2019).

Experiments:
[1] = tested on: FaDu (HNSCC) tumor xenografts; assay: Tumor growth delay of FaDu xenografts with radiation; assay type: in vivo, nude mice
Method: (§1) Methods: Three non-small cell lung carcinoma lines (NSCLCs) (H460, A549 and H1299) and three head and neck squamous cell carcinoma lines (HNSCCs) (FaDu, SCC-15 and SCC-25) cell lines were used for in vitro experiments. Of these, H460 and FaDu were used for in vivo testing when grown as xenografts in nude mice. The effects of cilengitide (1-50 μg/ml, 24 h) on in vitro cell viability was determined by MTS assay and on cellular radiosensitivity by clonogenic cell survival assay after exposing the cells to graded single doses of γ-radiation with or without cilengitide (given 1 h before and continued for 23 h after irradiation). In vivo effect of cilengitide on radioresponse of xenografts was assessed by tumor growth delay. When tumor xenografts reached 7 mm in diameter cilengitide treatment (30 or 60 mg/d/5 or 10 days) was initiated followed by a single dose of 15 Gy local radiation (using ^137Cs γ-ray source), when the tumors reached 8 mm.

[2] = tested on: MDA-MB-231 breast cancer bone metastases; assay: Experimental breast cancer bone metastases in nude rats: volumes of osteolytic lesions and soft tissue components by VCT and MRI; assay type: in vivo, nude rats (RNU strain); details: for Mean relative values of the OL (osteolytic lesion) volumes, increase compared to initial values at day 30 / Mean relative STC (soft tissue component) volume, increase compared to initial values at day 30: 75 mg/kg i.p. five times per week from day 30
Method: Nude rats (RNU strain) are obtained from Harlan-Winkelmann GmbH (Borchen, Germany) at the age of six weeks and housed in a specific pathogen-free environment in a mini barrier system of the central animal facility. Animals are kept under controlled conditions (21±2° C. room temperature, 60% humidity, 12 h light-dark rhythm) and offered autoclaved food and water ad libitum. Sub-confluent MDAMB-231 cells are harvested using 0.05% Trypsin-EDTA (Gibco®; Invitrogen, Karlsruhe, Germany) counted on a Neubauer's chamber and resuspended in RPMI-1640 to a final concentration of 10^5 cells in 200 μl. Rats are anesthetized using a mixture of nitrous oxide (1 l/min), oxygen (0.5 l/min) and isoflurane (1.5 vol. %). Arterial branches of the right hind leg are dissected and 10^5 cells injected into the superficial epigastric artery as described previously.^28 Bone metastases established and are observed exclusively in the femur, tibia and fibula of the right hind leg. 30 days after cancer cell transplantation, rats (n=24) are randomly divided into two groups, one group receiving the cyclic RGD-peptide inhibitor of αvβ3/αvβ5 integrins (cilengitide, EMD 121974^14, 17, 29; Merck, Darmstadt, Germany) intraperitoneally five times per week (75 mg/kg; n=12 rats) and the other, sham-treated group, serving as a control (n=12 rats). The observation period of all animals is 55 days and no rat in the study dies ahead of schedule.
After the inoculation of cancer cells each rat is imaged at days 30, 35, 45 and 55 using (i) a flat-panel equipped volumetric computed tomograph (Volume CT, Siemens, Germany) and (ii) a 1.5T clinical magnetic resonance scanner (Symphony, Siemens, Erlangen, Germany) equipped with a home-built receive-transmit coil (cylindrical volume resonator with an inner diameter of 83 mm and a usable length of 120 mm). Prior to in vivo imaging with VCT and MRI, rats are anesthetized with nitrous oxide, oxygen and isoflurane as described above.
VCT imaging is obtained using the following parameters: tube voltage 80 kV, tube current 50 mA, scan time 51 s, rotation speed 10 s, frames per second 120, matrix 512×512, and slice thickness 0.2 mm. Image reconstructions are performed using a modified FDK (Feldkamp Davis Kress) cone beam reconstruction algorithm (kernel H80a; Afra, Erlangen, Germany).
T2-weighted imaging is performed using a turbo spin echo sequence (orientation axial, TR 3240 ms, TE 81 ms, matrix 152×256, FOV 90×53.4 mm^2, slice thickness 1.5 mm, 3 averages, scan time 3 min 40 s). For dynamic contrast-enhanced MRI, a saturation recovery turbo flash sequence through the largest diameter of the tumor (orientation axial, TR 373 ms, TE 1.86 ms, matrix 192×144, FOV 130×97.5 mm, slice thickness 5 mm, measurements 512, averages 1, scan time 6 min 55 s) is used. After 20 s baseline, 0.1 mmol/kg Gd-DTPA (Magnevist; Bayer Schering Pharma, Berlin, Germany) is intravenously infused for a time period of 10 s.
Unenhanced VCT images and MRI-acquired T2-weighted images are analyzed using the Medical Imaging Interaction Toolkit (MITK, Heidelberg, Germany) to determine volumes of osteolytic lesions and soft tissue components, respectively. DCE-MRI acquired data is analyzed using the Dynalab workstation (Mevis Research, Bremen, Germany) according to the two-compartment model of Brix to determine the parameters amplitude A and exchange rate constant kep, as described.^23, 30 Briefly, the injected contrast media is distributed in both compartments (intravascular space and extravascular, interstitial space). The accumulation of contrast agent in these compartments over time is characterized by the amplitude A (associated with blood volume), whereas the exchange of contrast agent between the intravascular space and the interstitial space is characterized by the exchange rate constant kep (associated with vessel permeability). […]

[3] = tested on: 4T1 mouse breast tumour cells; assay: Study 003: 4T1 orthotopic model (lung and liver metastases); assay type: in vivo, female BALB/c mice
Method: 4T1 mouse breast tumour cells were orthotopically inoculated into the third mammary fat pad of female BALB/c mice. The mice were randomised into groups when the tumors reached a size of approximately 40 mm^3.
The mice in each group received treatment with either Vehicle Control (Placebo), EMD 121974 (75, 150 or 300 mg/kg as Composition according to Example 18) or Taxol® (8 mg/kg). The Vehicle Control and EMD 121974 were administered by subcutaneous injection, daily; Taxol® was administered by intravenous injection three times per week.
Body weight and tumour volume measurements were made for all mice three times per week. The lungs and liver were excised from all mice at termination. For lung metastasis assessment surface metastases of the lungs were counted and for liver metastasis assessment H&E-stained sections of liver were assessed for the presence and number of micro-metastases.

[4] = tested on: H460 (NSCLC) tumor xenografts; assay: Tumor growth delay of H460 xenografts with radiation; assay type: in vivo, nude mice
Method: as §1

[5] = tested on: MDA-MB468 human breast tumour cells; assay: Study 007: MDA-MB-468 primary tumor growth; assay type: in vivo, female BALB/c nu/nu mice; details: all three dosing groups (75, 150 or 300 mg/kg) daily s.c., composition according to Example 18; Vehicle Control higher than 350 mm^3
Method: MDA-MB468 human breast tumour cells were orthotopically inoculated into the third mammary fat pad of female BALB/c nu/nu mice. The mice were randomised into groups when the tumors reached a size of approximately 40 mm^3.
The mice in each group received treatment with either Vehicle Control (Placebo) or EMD 121974 (75, 150 or 300 mg/kg as a Composition according to Example 18) by daily subcutaneous injection. Body weight and tumour volume measurements were made for all mice three times per week.

[6] = with single dose of 15 Gy local radiation

## CC(C)[C@H]1C(=O)N[C@@H](CCCN=C(N)N)C(=O)NCC(=O)N[C@@H](CC(=O)O)C(=O)N[C@H](Cc2ccccc2)C(=O)N1C [Cilengitide, cyclo-(Arg-Gly-Asp-DPhe-NMeVal)]
[1]; [6]
  enhancement factor of tumor radioresponse (tumor growth delay): 2.0
[1]; without radiation
  antitumor activity as a single agent (tumor growth delay): no antitumor activity
[2]; day 35 (control 1.9 fold)
  Mean relative values of the OL (osteolytic lesion) volumes, increase compared to initial values at day 30: 1.5 fold
[2]; day 35 (control 2.3 fold)
  Mean relative STC (soft tissue component) volume, increase compared to initial values at day 30: 2.2 fold
[2]; day 45 (control 4.5 fold, p<0.05)
  Mean relative values of the OL (osteolytic lesion) volumes, increase compared to initial values at day 30: 2.4 fold
[2]; day 45 (control 10.4 fold, p<0.05)
  Mean relative STC (soft tissue component) volume, increase compared to initial values at day 30: 4.9 fold
[2]; day 55 (control 9.7 fold, p<0.01)
  Mean relative values of the OL (osteolytic lesion) volumes, increase compared to initial values at day 30: 3.5 fold
[2]; day 55 (control 22.5 fold, p<0.01)
  Mean relative STC (soft tissue component) volume, increase compared to initial values at day 30: 6.3 fold
[2]; treatment group, three of 12 rats, not in control animals
  rats showing new bone formation under therapy as imaged by VCT: 25%
[3]; 75, 150 or 300 mg/kg daily s.c. as Composition according to Example 18, significant for all doses
  spontaneous liver metastasis formation: inhibited spontaneous liver metastasis formation comparable to Taxol
[3]; daily s.c. as Composition according to Example 18, significant for 300 mg/kg/day
  spontaneous lung metastasis formation: spontaneous lung metastasis formation comparable to Taxol
[4]; [6]
  enhancement factor of tumor radioresponse (tumor growth delay): 1.7
[4]; without radiation
  antitumor activity as a single agent (tumor growth delay): no antitumor activity
[5]
  tumour volume on day 60: below 200 mm^3
